The text below walks through data of patent US7319152B2 (Wyeth, priority 2005, dated 2008).

Each structure is given as a SMILES string. pEC50, pIC50: −log10 of the molar value. “And” between values parts separate entries of the source, which are not always exact repeats. Identical values can stand only once.

The test system of one assay is rat uterine decidualization. Description: Rat decidualization assay. The class given is in vivo. To be noted: ovariectomized Sprague-Dawley rats, s.c., average of dose-response curves. The method, then:
The animals were treated once daily for seven days. […] In all studies, a control group receiving vehicle was included. […] The contralateral horn was not scratched and served as an unstimulated control. Approximately 24 hoursfollowing the final treatment, rats were sacrificed by CO2 asphyxiation and body weight measured. Uteri were removed and trimmed of fat. Decidualized (D-horn) and control (C-horn) uterine horns were weighed separately.
Body weight: Mean total animal body weight (default-kg)
D-horn: Wet weight of decidualized uterine horn (default-kg)
C-horn: Wet weight of control uterine horn (default-kg)
Decidual response: [(D−C)/C]×100%
For `C#C[C@]1(O)CC[C@H]2[C@@H]3CCC4=CC(=O)CC[C@@H]4[C@H]3CC[C@@]21CC` [Levonorgestrel], the “Estimated average EC50 for uterine wet weight” value was 0.10 mg/kg, s.c. On the same count and under the same terms, the result for `C#C[C@]1(O)CC[C@H]2[C@@H]3CCC4=CC(=O)CC[C@@H]4[C@H]3C(=C)C[C@@]21CC` [3-Ketodesogestrel] reads 0.10 mg/kg, s.c.

The same assay, now with this note: ovariectomized rats, p.o., with EC50 dose of progesterone (5.6 mg/kg), individual studies.
`CC#C[C@]1(O)CC[C@H]2[C@@H]3CCC4=CC(=O)CCC4=C3[C@@H](c3ccc(N(C)C)cc3)C[C@@]21C` [RU486]: the “Estimated IC50 for uterine weight” value was 0.21 mg/kg, p.o. and 0.14 mg/kg, p.o.

In a further assay the target is T1, PR (Homo sapiens, UniProt P06401).
T1 construct: alkaline phosphatase activity in T47D cells; endogenous in cells; host or cells: T47D cells
T1 sequence (P06401 1-933): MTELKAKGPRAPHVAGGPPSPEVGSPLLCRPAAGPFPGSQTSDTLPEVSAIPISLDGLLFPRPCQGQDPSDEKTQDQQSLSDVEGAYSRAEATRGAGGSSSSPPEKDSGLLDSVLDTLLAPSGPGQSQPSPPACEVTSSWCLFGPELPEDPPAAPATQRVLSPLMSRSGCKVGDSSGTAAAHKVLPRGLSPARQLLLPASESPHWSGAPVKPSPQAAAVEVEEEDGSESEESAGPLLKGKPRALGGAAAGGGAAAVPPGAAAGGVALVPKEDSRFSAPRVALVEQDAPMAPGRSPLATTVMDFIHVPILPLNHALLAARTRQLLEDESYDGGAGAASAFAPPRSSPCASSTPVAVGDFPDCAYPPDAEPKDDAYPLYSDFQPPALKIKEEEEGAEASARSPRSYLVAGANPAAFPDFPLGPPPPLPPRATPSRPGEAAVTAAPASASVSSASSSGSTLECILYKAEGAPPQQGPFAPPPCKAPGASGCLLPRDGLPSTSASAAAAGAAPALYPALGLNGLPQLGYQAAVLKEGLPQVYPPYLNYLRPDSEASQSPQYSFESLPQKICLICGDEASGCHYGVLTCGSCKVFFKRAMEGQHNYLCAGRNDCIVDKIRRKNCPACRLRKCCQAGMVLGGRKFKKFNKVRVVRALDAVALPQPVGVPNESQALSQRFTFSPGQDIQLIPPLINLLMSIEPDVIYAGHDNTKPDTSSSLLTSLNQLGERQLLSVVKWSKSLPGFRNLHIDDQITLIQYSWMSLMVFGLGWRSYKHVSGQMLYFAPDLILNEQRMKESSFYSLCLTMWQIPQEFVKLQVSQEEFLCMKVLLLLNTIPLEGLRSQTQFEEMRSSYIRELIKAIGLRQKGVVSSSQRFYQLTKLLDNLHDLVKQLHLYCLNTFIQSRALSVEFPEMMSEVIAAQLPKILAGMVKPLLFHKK
The experiment in a line: T47D cell alkaline phosphatase assay. The format is cell-based. To be noted: T47D cells, agonist mode; read-out: Alk. Phos. EC50. As to the method: (a) Purpose: To identify progestins or antiprogestins by determining a compound's effect on alkaline phosphatase activity in T47D cells. […] Cell Culture and Treatment • Frozen T47D cells were thawed in a 37° C. water bath and diluted to 280,000 cells/ml in culture medium. To each well in a 96-well plate (Falcon, Becton Dickinson Labware), 180 ? L of diluted cell suspension was added. Twenty ? L of reference or test compounds diluted in the culture medium was then added to each well. […] The cells were incubated at 37° C. in a 5% CO2humidified atmosphere for 24 hours. • Note: For high throughput screening, one concentration of each compound was tested at 0.3 mg/ml. […] Alkaline Phosphatase Enzyme Assay • At the end of treatment, the medium was removed from the plate. Fifty ? L of assay buffer I was added to each well. The plates were shaken in a titer plate shaker for 15 minutes. Then 150 ? L of assay buffer II was added to each well. […] Square root-transformed data were used for analysis of variance and nonlinear dose response curve fitting for both agonist and antagonist modes. Huber weighting was used to downweight the effects of outliers. EC50 or IC50 values were calculated from the retransformed values. JMP software (SAS Institute, Inc.) was used for both one-way analysis of variance and non-linear dose response analyses in both single dose and dose response studies.
For `Cn1c(C#N)ccc1-c1ccc2c(c1)C(C)(C)CC2=O` [Example 3, 5-(3,3-dimethyl-1-oxo-2,3-dihydro-1H-inden-5-yl)-1-methyl-1H-pyrrole-2-carbonitrile], the pEC50 (commonly the EC50 on a negative log10 scale, so that one unit is a factor of ten) is 8.00.

The same assay, now with this note: read-out: Alk. Phos. IC50.
For the compound `Cn1c(C#N)ccc1-c1ccc2c(c1)CCCC2=O` [Example 13, 1-methyl-5-(5-oxo-5,6,7,8-tetrahydronaphthalen-2-yl)-1H-pyrrole-2-carbonitrile], the negative logarithm of the IC50 (pIC50) (commonly −log10 of the IC50, conventionally taken in molar units) is 7.56. For `CC1(C)CC(=O)c2ccc(-c3cccc(Cl)c3)cc21` [Example 28, 5-(3-chlorophenyl)-3,3-dimethylindan-1-one], the negative-log IC50 (pIC50) was 7.18. For the compound `Cn1c(C#N)ccc1-c1ccc(C(=O)c2ccccc2)cc1` [Example 11, 5-(4-benzoylphenyl)-1-methyl-1H-pyrrole-2-carbonitrile], the negative logarithm of the IC50 (pIC50) was 6.52. As for `CC1(C)CC(=O)c2ccc(-c3ccc(F)c(Cl)c3)cc21` [Example 38, 5-(3-chloro-4-fluorophenyl)-3,3-dimethylindan-1-one], the negative logarithm of the IC50 (pIC50) was 7.00. As for `CC1(C)CC(=O)c2ccc(-c3cc(Cl)ccc3Cl)cc21` [Example 35, 5-(2,5-dichlorophenyl)-3,3-dimethylindan-1-one], the pIC50 was 6.20.

As to `CC1(C)CC(=O)c2ccc(-c3ccc(Cl)cc3)cc21` [Example 21, 5-(4-chlorophenyl)-3,3-dimethylindan-1-one], the pIC50 was 6.70. Consider `Cn1c(C#N)ccc1-c1ccc(C(=O)c2cccs2)cc1` [Example 10, 1-methyl-5-[4-(thien-2-ylcarbonyl)phenyl]-1H-pyrrole-2-carbonitrile], for which the pIC50 was 6.58. Turning to `CC1(C)CC(=O)c2ccc(-c3ccc(Cl)cc3Cl)cc21` [Example 36, 5-(2,4-dichlorophenyl)-3,3-dimethylindan-1-one], the pIC50 was 6.46. `CC1(C)CC(=O)c2ccc(-c3ccccc3Cl)cc21` [Example 32, 5-(2-chlorophenyl)-3,3-dimethylindan-1-one]: the negative-log IC50 (pIC50) is 6.13. `Cc1ccc(-c2ccc3c(c2)C(C)(C)CC3=O)cc1` [Example 26, 3,3-dimethyl-5-(4-methylphenyl)indan-1-one]: the pIC50 was 6.06. With `CCC(=O)c1ccc(-c2ccc(C#N)n2C)cc1` [Example 9, 1-methyl-5-(4-propionylphenyl)-1H-pyrrole-2-carbonitrile], the negative-log IC50 (pIC50) is 6.94.

Take `Cc1cccc(-c2ccc3c(c2)C(C)(C)CC3=O)c1` [Example 29, 3,3-dimethyl-5-(3-methylphenyl)indan-1-one]: the pIC50 was 6.65. Take `CC1(C)CC(=O)c2ccc(-c3ccccc3)cc21` [Example 37, 3,3-dimethyl-5-phenylindan-1-one]: the negative-log IC50 (pIC50) was 6.52.
